Values quoted from earlier work, collected in patent US8785634B2, “Spiropiperidine prolylcarboxypeptidase inhibitors” (Merck Sharp & Dohme Corp, priority 2010, dated 2014).

How the values were obtained:
[1] = in vivo
rats = settings: intracerebroventricular
[2] = test system: obese, leptin deficient mice; settings: systemic administration

Molecule | weight loss, of body weight, drug compared to placebo [1] | overnight food intake (rats) | overnight food intake [2]
CCN[C@@H](C)Cc1cccc(C(F)(F)F)c1 [dexfenfluramine] | 5%-10% |  | 
CC(C)(N)Cc1ccccc1 [phentermine] | 5%-10% |  | 
CCCCCCCCCCC[C@@H](C[C@@H]1OC(=O)[C@H]1CCCCCC)OC(=O)[C@H](CC(C)C)NC=O [orlistat] | 5%-10% |  | 
CC(C)CC(N(C)C)C1(c2ccc(Cl)cc2)CCC1 (stereo not drawn) [sibutramine] | 5%-10% |  | 
t-butyl carbamate-prolyl prolinal [BPP] |  | suppression of overnight food intake | suppression of overnight food intake
